Measured values from patent publication US11873517B2, “Candida tropicalis strain having improved tolerance to the cytotoxicity of substrates, and method for producing dicarboxylic acid using same” (priority 2018, dated 2024).

System: Candida tropicalis MYA_3404 strain
Test: toxicity test of substrates and product: growth of the strain in YNB medium
Conditions: 36 hours; for growth of the strain in the medium to which the substance was added, compared to the control: added at 5 g/L to YNB medium, 30° C., 200 rpm, FIG. 1

## CCCCCCCCCC(=O)O [DA, decanoic acid]
  growth of the strain in the medium to which the substance was added, compared to the control: did not grow

## CCCCCCCCCC(=O)OC [DAME, decanoic acid methyl ester]
5 g/L in YNB medium
  cytotoxicity compared to the sebacic acid: stronger cytotoxicity
  growth of the strain in the medium to which the substance was added, compared to the control: did not grow

## O=C(O)CCCCCCCCC(=O)O [sebacic acid]
  growth of the strain in the medium to which the substance was added, compared to the control: the growth rate and the total cell mass of the strain decreased
